Assay results as given in patent EP2027850A1, “Pharmaceutical compositions containing voriconazole” (SANDOZ AG, priority 2007, dated 2009).

Assay: solubility of voriconazole in N-methylpyrrolidone and water / NMP mixtures
Assay type: physicochemical
Experimental: This can also be used to improve the solubility of voriconazole in aqueous solutions.
0.210 g Voriconazole are dissolved in 50 mL N-Methylpyrrolidone (NMP) using a magnetic stirrer. Further aliquots of 0.305 g, 0.519 g and 1.009 Voriconazole are added to NMP-solution using magnet stirring. Solution I is obtained, composed of […] Voriconazole in 50 mL NMP.
0.45 - 0.55 g Voriconazole are dissolved in NMP according to example 1. After obtaining a clear solution, solutions are made up with water to 20.0 mL.
Therefore, in 20 mL solution, 0.5 g Voriconazole can be dissolved with water / NMP mixtures.

solubility in N-methylpyrrolidone: extremely high
Structure (SMILES): C[C@@H](c1ncncc1F)[C@](O)(Cn1cncn1)c1ccc(F)cc1F [Voriconazole, (2R,3S)-2-(2,4-Difluorophenyl)-3-(5-fluoro-4-pyrimidinyl)-1-(1H-1,2,4-triazol-1-yl)-butan-2-ol]
